Reference: patent publication US20240246943A1, “MULTIFACETED APPROACH TO NOVEL INTERLEUKIN-6 INHIBITORS” (UNIVERSITY OF FLORIDA RESEARCH FOUNDATION, INCORPORATED, priority 2021, published 2024)
Read-outs that look alike come from different tables or passages of the source. Marks after values point to notes of the source that are not given here.

Experiments:
Format in all cases: cell-based
[1] = test system: MDA-MB-231 breast cancer cells; assay: MTT cell viability assay, MDA-MB-231
Method: (§1) Cell viability of MDA-MB-231 breast cancer cells was evaluated by using the MTT assay in triple replicates in one experiment and repeated for three times (FIG. 3). […] The cells were incubated at 37° C. for a period of 24 hours. Escalating concentrations of IL-6/gp130 inhibitors (e.g., compounds of Formula (A), (B), (C), (D), (E), or (F) including LLM-418, bazedoxifene, LS-28-3, and COMP-D (LS-101-D)) were added in triplicate to the plates in the presence of 10% FBS. After incubation for 72 hours (unless otherwise noted), a stock solution of MTT (0.5 mg/ml) was then added to each well containing the treated cells, followed by incubation at 37° C. for 3 h. After removal of medium, the MTT dye was dissolved with spectrophotometric grade DMSO and the absorbance was read at 570 nm. The IC50 value is determined by interpolation based on the absorbance value halfway between positive and negative controls.

[2] = test system: SUM159 breast cancer cells; assay: MTT cell viability assay, SUM159; conditions: for IC50 / IC50 Values in Breast Cancer Cell Lines, SUM159 / SUM159 IC50: 72 hours, Inactive = no measurable activity at 20 μM
Method: Cell viability of MDA-MB-231 breast cancer cells was evaluated by using the MTT assay in triple replicates in one experiment and repeated for three times (FIG. 3). MDA-MB-231 SUM159, SUM159 […], MDA-MB-231 breast cancer cells or SUM149 or HCC1937 BRCA mutant breast cancer cells were seeded in 96-well plates at a density of 3,000 cells per well. The cells were incubated at 37° C. for a period of 24 hours. Escalating concentrations of IL-6/gp130 inhibitors (e.g., compounds of Formula (A), (B), (C), (D), (E), or (F) including LLM-418, bazedoxifene, LS-28-3, and COMP-D (LS-101-D)) were added in triplicate to the plates in the presence of 10% FBS. After incubation for 72 hours (unless otherwise noted), a stock solution of MTT (0.5 mg/ml) was then added to each well containing the treated cells, followed by incubation at 37° C. for 3 h. After removal of medium, the MTT dye was dissolved with spectrophotometric grade DMSO and the absorbance was read at 570 nm. The IC50 value is determined by interpolation based on the absorbance value halfway between positive and negative controls.

[3] = test system: MDA-MB-231 Bone Metastatic breast cancer cells; assay: MTT cell viability assay, MDA-MB-231 Bone Metastatic; conditions: 72 hours
Method: as §1

[4] = test system: SUM159 gp130ko breast cancer cells; assay: MTT cell viability assay, SUM159 gp130ko; conditions: 72 hours, read-out: IC50 Values in Breast Cancer Cell Lines, SUM159 gp130ko
Method: as §1

[5] = test system: induced p-STAT1; assay: Selectivity study, western blot, T47D cells, IFN stimulation; conditions: T47D breast cancer cells, compound, then cytokine
Method: (§2) Cells were harvested and lysed in cold radioimmunoprecipitation assay (RIPA) lysis buffer containing proteasome inhibitor cocktail and phosphatase inhibitor cocktail. The protein concentrations were determined using the BCA Protein Assay kit. After adding the loading buffer and boiling at 95° C. for 10 minutes, equivalent amounts of proteins were loaded on and separated by SDS-PAGE, and then were transferred to PVDF membranes. Membranes were probed with primary antibodies (1:1000) against gp130 and GAPDH. Membranes were analyzed using Enhanced Chemiluminescence Plus reagents and either scanned with the Storm Scanner (Amersham Pharmacia Biotech, Inc., Piscataway, NJ) or imaged with ChemiDoc MP imaging system (Bio-Rad, Hercules, CA).
(§3) Inhibition of downstream STAT3 phosphorylation was performed. T47D breast cancer cells, which lack endogenous IL-6, were treated with LLM418-MCBu for 2 hours. Then, cytokine was administered for 30 minutes (IL-6, INF, LIF, or OSM). Western blot conducted afterwards to assess dose-dependent inhibition of IL-6 signaling (or lack thereof) (FIG. 5).

[6] = test system: IL-6 induced p-STAT3; assay: Selectivity study, western blot, T47D cells, IL-6 stimulation; conditions: T47D breast cancer cells, compound 2 hours, then cytokine 30 minutes
Method: as §2, §3

[7] = Homo sapiens, MDA-MB-231, Table 3 batch studies (independent from Table 1), MTT, 72 hours, Inactive = no measurable activity at 20 μM, read-out: MDA-MB-231 IC50
[8] = SUM159, Table 3 batch studies (independent from Table 1), read-out: SUM159 IC50
[9] = Homo sapiens, MDA-MB-231, Table 1 batch studies, MTT, 72 hours, Inactive = no measurable activity at 20 μM, read-out: IC50 Values in Breast Cancer Cell Lines, MDA-MB-231
[10] = SUM159, Table 1 batch studies, read-out: IC50 Values in Breast Cancer Cell Lines, SUM159
[11] = Table 1 batch studies, MTT, 72 hours, Inactive = no measurable activity at 20 μM, read-out: IC50 Values in Breast Cancer Cell Lines, MDA-MB-231
[12] = Table 3 batch studies (independent from Table 1), MTT, 72 hours, Inactive = no measurable activity at 20 μM, read-out: MDA-MB-231 IC50
[13] = Table 1 batch studies, read-out: IC50 Values in Breast Cancer Cell Lines, SUM159
[14] = Table 3 batch studies (independent from Table 1), read-out: SUM159 IC50
[15] = Homo sapiens, MDA-MB-231, Table 1 batch studies, read-out: IC50 Values in Breast Cancer Cell Lines, MDA-MB-231 Bone Metastatic
[16] = Homo sapiens, MDA-MB-231, Table 3 batch studies (independent from Table 1), read-out: MDA-MB-231 Bone Metastatic IC50
[17] = Table 1 batch studies, MTT, 72 hours, Inactive = no measurable activity at 20 μM
[18] = Table 3 batch studies (independent from Table 1), MTT, 72 hours, Inactive = no measurable activity at 20 μM
[19] = Table 3 batch studies (independent from Table 1)

Cc1c(-c2ccc(O)cc2)n(Cc2ccc(OCCN3CCCCCC3)cc2)c2ccc(O)cc12 [Bazedoxifene, bazedoxifene, reference compound]
IC50 [1, 7]: 12 µM | IC50 [2, 8]: 7.1 µM

O=C(Nc1ccccc1-n1cccc1)c1ccc(OCCCN2CCCCC2)cc1 [LLM4-S1, N-(2-(1H-pyrrol-1-yl)phenyl)-4-(3-(piperidin-1-yl)propoxy)benzamide]
IC50 [1, 9]: 53.1 µM | IC50 [1, 7]: 53.1 µM | IC50 [2, 10]: 58.7 µM | IC50 [2, 8]: 58.7 µM

O=C(Nc1cc(F)ccc1N1CCCC1)c1ccc(OCCCN2CCCCC2)cc1 [LLM4-S2, N-(5-fluoro-2-(pyrrolidin-1-yl)phenyl)-4-(3-(piperidin-1-yl)propoxy)benzamide]
IC50 [1, 9]: 47.8 µM | IC50 [1, 7]: 47.8 µM | IC50 [2, 10]: 24.7 µM | IC50 [2, 8]: 24.7 µM

O=C(Nc1ccccc1N1CCCC1)c1ccc(OCCCN2CCCCC2)cc1 [LLM4-S3, 4-(3-(piperidin-1-yl)propoxy)-N-(2-(pyrrolidin-1-yl)phenyl)benzamide]
IC50 [1, 9]: 49.1 µM | IC50 [1, 7]: 49.1 µM | IC50 [2, 10]: 46.1 µM | IC50 [2, 8]: 46.1 µM

O=C(Nc1cc(F)ccc1-n1cccc1)c1ccc(OCCCN2CCCCC2)cc1 [LLM4]
IC50 [1, 11]: 47.7 µM | IC50 [1, 12]: 47.7 µM | IC50 [2, 13]: 31.1 µM | IC50 [2, 14]: 31.1 µM

O=C(Nc1ccccc1-c1ccn[nH]1)c1ccc(OCCN2CCCCC2)cc1 [LLM418, N-(2-(1H-pyrazol-5-yl)phenyl)-4-(2-(piperidin-1-yl)ethoxy)benzamide]
IC50 [1, 9]: 25.1 µM | IC50 [1, 7]: 28.1 µM | IC50 [2, 10]: 16.3 µM | IC50 [2, 8]: 16.3 µM | IC50 [3, 15]: 23.7 µM | IC50 [3, 16]: 23.7 µM | IC50 ([4]; SUM159, Table 1 batch studies): 22.5 µM

CCn1ccc(-c2ccccc2NC(=O)c2ccc(OCCN3CCCCC3)cc2)n1 [LLM418-Et, N-(2-(1-ethyl-1H-pyrazol-3-yl)phenyl)-4-(2-(piperidin-1-yl)ethoxy)benzamide]
IC50 [1, 9]: 17.5 µM | IC50 [1, 7]: 17.5 µM | IC50 [2, 10]: 13.5 µM | IC50 [2, 8]: 17.4 µM | IC50 [3, 15]: 16.8 µM | IC50 [3, 16]: 16.8 µM | Inhibition of IFN-7 induced p-STAT1 [5]: inhibit both IL-6 induced p-STAT3 and IFN-7 induced p-STAT1 | IC50 ([4]; SUM159, Table 1 batch studies): 18.2 µM | Inhibition of IL-6 induced p-STAT3 [6]: inhibit both IL-6 induced p-STAT3 and IFN-7 induced p-STAT1

O=C(Nc1ccccc1-c1ccn(CC(F)(F)F)n1)c1ccc(OCCN2CCCCC2)cc1 [LLM418-MCF3, 4-(2-(piperidin-1-yl)ethoxy)-N-(2-(1-(2,2,2-trifluoroethyl)-1H-pyrazol-3-yl)phenyl)benzamide]
IC50 [1, 9]: 169 µM | IC50 [1, 7]: 169 µM | IC50 [2, 10]: 16 µM | IC50 [2, 8]: 16 µM

CCCn1ccc(-c2ccccc2NC(=O)c2ccc(OCCN3CCCCC3)cc2)n1 [LLM418-Pr, N-(2-(1-propyl-1H-pyrazol-3-yl)phenyl)-4-(2-(piperidin-1-yl)ethoxy)benzamide]
IC50 [1, 9]: 5.8 µM | IC50 [1, 7]: 5.8 µM

c1ccc2c(c1)nc(-c1ccc(OCCN3CCCCC3)cc1)n1nccc21 [LLM418-SC, 5-(4-(2-(piperidin-1-yl)ethoxy)phenyl)pyrazolo[1,5-c]quinazoline]
IC50 ([1]; Homo sapiens, MDA-MB-231, Table 1 batch studies, 48-hour MTT, read-out: IC50, MDA-MB-231, 48-hour MTT): 11.3 µM | IC50 ([1]; Homo sapiens, MDA-MB-231, Table 3 batch studies, 48-hour MTT, read-out: MDA-MB-231 IC50, 48-hour MTT): 11.3 µM

CC(C)[C@H]1COC(=O)N1c1ccc(C(=O)Nc2ccccc2-c2cc[nH]n2)cc1 [LS-28-2, (S)—N-(2-(1H-pyrazol-3-yl)phenyl)-4-(4-isopropyl-2-oxooxazolidin-3-yl)benzamide]
Percent cells remaining after treatment with 20 μM compound, MDA-MB-231 ([1]; Table 1 batch studies, MTT): 21%* | Percent cells remaining after treatment with 20 μM compound, MDA-MB-231 ([1]; Table 3 batch studies, MTT): 21%* | Percent cells remaining after treatment with 20 μM compound, SUM159 ([2]; Table 1 batch studies): 33%* | Percent cells remaining after treatment with 20 μM compound, SUM159 ([2]; Table 3 batch studies): 33%*

CC1(C)O[C@@H]2[C@@H](CO[C@@]3(Cn4cc(-c5cccc(NC(=O)c6ccc(OCCN7CCCCC7)cc6)c5)nn4)OC(C)(C)O[C@@H]23)O1 [LS-TF-3P]
IC50 [1, 12]: 67 µM | IC50 [2, 14]: 16 µM

CC1(C)O[C@@H]2[C@@H](CO[C@@]3(Cn4cc(-c5ccc(NC(=O)c6ccc(OCCN7CCCCC7)cc6)cc5)nn4)OC(C)(C)O[C@@H]23)O1 [LS-TF-4P]
IC50 [1, 11]: 18.4 µM | IC50 [1, 12]: 18.4 µM | IC50 [2, 13]: 26.1 µM | IC50 [2, 14]: 26.1 µM | IC50 ([3]; Table 3 batch studies (independent from Table 1), read-out: MDA-MB-231 Bone Metastatic IC50): 26.7 µM | IC50 ([4]; Table 1 batch studies): 26.7 µM

O=C(Nc1ccccc1-c1cn([C@@H]2OC[C@@H](O)[C@H](O)[C@H]2O)nn1)c1ccc(OCCN2CCCCC2)cc1 [LS-TX-2, 4-(2-(piperidin-1-yl)ethoxy)-N-(2-(1-((2R,3R,4S,5R)-3,4,5-trihydroxytetrahydro-2H-pyran-2-yl)-1H-1,2,3-triazol-4-yl)phenyl)benzamide·acetic acid]
IC50 Values in Breast Cancer Cell Lines, MDA-MB-231 [1, 17]: Inactive | MDA-MB-231 IC50 [1, 18]: Inactive | IC50 Values in Breast Cancer Cell Lines, SUM159 ([2]; Table 1 batch studies): Inactive | SUM159 IC50 [2, 19]: Inactive

O=C(Nc1cccc(-c2cn([C@@H]3OC[C@@H](O)[C@H](O)[C@H]3O)nn2)c1)c1ccc(OCCN2CCCCC2)cc1 [LS-TX-3, 4-(2-(piperidin-1-yl)ethoxy)-N-(3-(1-((2R,3R,4S,5R)-3,4,5-trihydroxytetrahydro-2H-pyran-2-yl)-1H-1,2,3-triazol-4-yl)phenyl)benzamide·acetic acid]
IC50 Values in Breast Cancer Cell Lines, MDA-MB-231 [1, 17]: Inactive | MDA-MB-231 IC50 [1, 18]: Inactive | IC50 Values in Breast Cancer Cell Lines, SUM159 ([2]; Table 1 batch studies): Inactive | SUM159 IC50 [2, 19]: Inactive

O=C(Nc1ccc(-c2cn([C@@H]3OC[C@@H](O)[C@H](O)[C@H]3O)nn2)cc1)c1ccc(OCCN2CCCCC2)cc1 [LS-TX-4, 4-(2-(piperidin-1-yl)ethoxy)-N-(4-(1-((2R,3R,4S,5R)-3,4,5-trihydroxytetrahydro-2H-pyran-2-yl)-1H-1,2,3-triazol-4-yl)phenyl)benzamide·acetic acid]
IC50 Values in Breast Cancer Cell Lines, MDA-MB-231 [1, 17]: Inactive | MDA-MB-231 IC50 [1, 18]: Inactive | IC50 Values in Breast Cancer Cell Lines, SUM159 ([2]; Table 1 batch studies): Inactive | SUM159 IC50 [2, 19]: Inactive
